Experimental data as given in patent publication US20260015350A1, “AZAQUINAZOLINE PAN-KRAS INHIBITORS” (Mirati Therapeutics, Inc., priority 2022, published 2026).

What was measured:
KRas^G12D = target: T1, KRas^G12D (Homo sapiens, UniProt P01116, G12D); assay: KRas binding assay (TR-FRET tracer displacement), KRas G12D
T1 construct: Biotinylated KRas (corresponding to amino acids 1-169, produced at Accelegan Inc.); biotin (biotinylated); purchased Accelegan Inc

KRas^G12R = target: T2, KRas^G12R (Homo sapiens, UniProt P01116, G12R); assay: KRas binding assay (TR-FRET tracer displacement), KRas G12R
T2 construct: Biotinylated KRas (corresponding to amino acids 1-169, produced at Accelegan Inc.); biotin (biotinylated); purchased Accelegan Inc

KRas^G12V = target: T3, KRas^G12V (Homo sapiens, UniProt P01116, G12V); assay: KRas binding assay (TR-FRET tracer displacement), KRas G12V
T3 construct: Biotinylated KRas (corresponding to amino acids 1-169, produced at Accelegan Inc.); biotin (biotinylated); purchased Accelegan Inc

[1] = system: KRas-mediated phosphorylation of ERK in AsPC-1 cells; assay: Inhibition of KRas-mediated phosphorylation of ERK (Cisbio HTRF pERK), AsPC-1 cells; type: cell-based; conditions: Homo sapiens, ASPC1, AsPC-1 cells; HTRF pERK
Method: (§1) Inhibition of KRas Phosphorylation of ERK (HTRF) by Exemplary Compounds of Formula (I) Cisbio HTRF Advanced PERK Assay Catalog #64[…] […] Add 10 mL of media to stop trypsinizing. Pipette the cells into a conical bottom 50 mL centrifuge tube and centrifuge 5 min×1000 rpm. […] Re-suspend the cell pellet in media, take a cell count, and then adjust the cell density using fresh media. […] Seed 6,000 cells into cell culture plate with 50 μL media. […] Use Tecan to complete the compound addition. Compounds start from 10 uM top, 3-fold dilution, and 10 doses. The final DMSO concentration is 0.8%. Dispensed 0.2 uM Trametinib as Min control. […] Incubate cell plate for 3 hrs in the incubator. […] Dilute 1 volume of 4× lysis buffer with 3 volumes of deionized water. […] Keep lysis buffer on the ice. […] At the end of the compound treatment, flick-off the media. […] Add 35 μL of lysis buffer per well using a Multidrop Combi. Then place on a plate agitator shaking at 300 rpm at 4° C. for 40 mins. […] Make up the HTRF antibody buffer. For each assay plate, mix 50 μL of d2-conjugate antibody with 950 μL of detection buffer. Similarly, mix 50 μL of Cryptate antibody with 950 μL of detection buffer. Then mix the two diluted antibodies together. […] Dispense 3.4 μL the antibody buffer to wells of an empty assay plate. Seal the plate and centrifuge plate 30 sec×1000 rpm. […] At the end of the 4° C. lysis, centrifuge the lysate plates 3 mins×1500 rpm. […] Use the Bravo to transfer 13.6 μL of lysate from cell culture plate to assay plate. Then incubate assay plate for 2 hrs at room temperature. 8. At the end of incubation, read plate on the Envision after centrifuging plate 30 sec×1000 rpm.

[2] = system: KRas-mediated phosphorylation of ERK in H727 cells; assay: Inhibition of KRas-mediated phosphorylation of ERK (Cisbio HTRF pERK), H727 cells; type: cell-based; conditions: Homo sapiens, NCI-H727, H727 cells; HTRF pERK
Method: as §1

T2 sequence (P01116 1-169 isoform P01116-2 G12R): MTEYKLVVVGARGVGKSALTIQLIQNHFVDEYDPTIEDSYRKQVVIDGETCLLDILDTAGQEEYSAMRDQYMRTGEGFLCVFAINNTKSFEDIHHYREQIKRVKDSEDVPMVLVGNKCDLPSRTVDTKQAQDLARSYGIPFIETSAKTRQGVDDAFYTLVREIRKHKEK
T3 sequence (P01116 1-169 isoform P01116-2 G12V): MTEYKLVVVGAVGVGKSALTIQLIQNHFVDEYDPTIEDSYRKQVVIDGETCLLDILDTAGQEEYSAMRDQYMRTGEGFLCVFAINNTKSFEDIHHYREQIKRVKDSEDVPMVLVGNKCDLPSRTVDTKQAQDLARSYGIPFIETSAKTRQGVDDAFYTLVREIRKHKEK
T1 sequence (P01116 1-169 isoform P01116-2 G12D): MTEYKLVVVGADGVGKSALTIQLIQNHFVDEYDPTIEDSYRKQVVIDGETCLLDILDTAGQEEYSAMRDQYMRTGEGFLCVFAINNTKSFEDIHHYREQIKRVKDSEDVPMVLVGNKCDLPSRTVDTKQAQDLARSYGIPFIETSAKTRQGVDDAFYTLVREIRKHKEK

SMILES	IC50 (KRas^G12D)	IC50 (KRas^G12R)	IC50 (KRas^G12V)	IC50 [1]	IC50 [2]
O=S1(=O)NCC2(CCCN(c3nc(OCC45CCCN4CCC5)nc4c(F)c(-c5cccc6cccc(CO)c56)ncc34)C2)N1 (centres unmarked) [Example 906, 7-(8-fluoro-7-(8-(hydroxymethyl)naphthalen-1-yl)-2-((tetrahydro-1H-pyrrolizin-7a(5H)-yl)methoxy)pyrido[4,3-d]pyrimidin-4-yl)-2-thia-1,3,7-triazaspiro[4.5]decane 2,2-dioxide]	66 nM	646 nM	247 nM		
CCc1c(F)ccc2cccc(-c3ncc4c(N5C[C@@H]6C[C@H](C5)[C@H](O)C6)nc(OC[C@@]56CCCN5C[C@H](F)C6)nc4c3F)c12 [Example 754, (1R,5R,6R)-3-(7-(8-ethyl-7-fluoronaphthalen-1-yl)-8-fluoro-2-(((2R,7aS)-2-fluorohexahydro-1H-pyrrolizin-7a-yl)methoxy)pyrido[4,3-d]pyrimidin-4-yl)-3-azabicyclo[3.2.1]octan-6-ol]				747 nM	516 nM
Fc1c(-c2cccc3cccc(F)c23)ncc2c(C3=CCCCC3)nc(OCC34CCCN3CCC4)nc12 [Example 524, 4-(cyclohex-1-en-1-yl)-8-fluoro-7-(8-fluoronaphthalen-1-yl)-2-((hexahydro-1H-pyrrolizin-7a-yl)methoxy)pyrido[4,3-d]pyrimidine]	> 100000 nM	> 100000 nM	70900 nM		
O[C@H]1CCCN(c2nc(OCC34CCCN3CCC4)nc3c(F)c(-c4cccc5cccc(Cl)c45)ncc23)C1 [Example 903, (S)-1-(7-(8-chloronaphthalen-1-yl)-8-fluoro-2-((tetrahydro-1H-pyrrolizin-7a(5H)-yl)methoxy)pyrido[4,3-d]pyrimidin-4-yl) piperidin-3-ol]	9830 nM	11200 nM	15100 nM		
CCc1cccc2cccc(-c3ncc4c(C5CCCCC5)nc(OCC56CCCN5CCC6)nc4c3F)c12 [Example 722, 4-cyclohexyl-7-(8-ethylnaphthalen-1-yl)-8-fluoro-2-((hexahydro-1H-pyrrolizin-7a-yl)methoxy)pyrido[4,3-d]pyrimidine]	> 100000 nM	30000 nM	42900 nM		
CCc1c(F)ccc2cc(O)cc(-c3ncc4c(N5CCN(C)C[C@]6(C)CCC[C@@H]56)nc(OC[C@@]56CCCN5C[C@H](F)C6)nc4c3F)c12 [Example 866, 4-(4-((5aS,8aR)-4,5a-dimethyloctahydrocyclopenta[e][1,4]diazepin-1(2H)-yl)-8-fluoro-2-(((2R,7aS)-2-fluorotetrahydro-1H-pyrrolizin-7a(5H)-yl)methoxy)pyrido[4,3-d]pyrimidin-7-yl)-5-ethyl-6-fluoronaphthalen-2-ol]	102 nM	7350 nM	3530 nM		
CCc1c(F)ccc2cc(O)cc(-c3ncc4c(NCc5cc(C(=O)N(C)C)n(CC#N)n5)nc(OC[C@@]56CCCN5C[C@H](F)C6)nc4c3F)c12 [Example 658, 1-(cyanomethyl)-3-(((7-(8-ethyl-7-fluoro-3-hydroxynaphthalen-1-yl)-8-fluoro-2-(((2R,7aS)-2-fluorotetrahydro-1H-pyrrolizin-7a(5H)-yl)methoxy)pyrido[4,3-d]pyrimidin-4-yl)amino)methyl)-N,N-dimethyl-1H-pyrazole-5-carboxamide]	224 nM	65 nM	7 nM		
CCc1c(F)ccc2cc(O)cc(-c3ncc4c(CCc5ccnn5C)nc(OC[C@@]56CCCN5C[C@H](F)C6)nc4c3F)c12 [Example 545, 5-ethyl-6-fluoro-4-(8-fluoro-2-(((2R,7aS)-2-fluorotetrahydro-1H-pyrrolizin-7a(5H)-yl)methoxy)-4-(2-(1-methyl-1H-pyrazol-5-yl)ethyl)pyrido[4,3-d]pyrimidin-7-yl)naphthalen-2-ol]	4970 nM	656 nM	431 nM		
CCCCCCCCCCN(C)C(=O)OC[C@@H]1CC[C@@]2(COc3nc(N4CCC[C@@](C)(O)C4)c4cnc(-c5cc(O)cc6ccc(F)c(CC)c56)c(F)c4n3)CCCN12 [Example 894, ((3S,7aR)-7a-(((7-(8-ethyl-7-fluoro-3-hydroxynaphthalen-1-yl)-8-fluoro-4-((R)-3-hydroxy-3-methylpiperidin-1-yl)pyrido[4,3-d]pyrimidin-2-yl)oxy)methyl)hexahydro-1H-pyrrolizin-3-yl)methyl decyl(methyl)carbamate]	121 nM	177 nM	119 nM		
CCc1c(F)ccc2cc(O)cc(-c3ncc4c(N5CC6OCCN(C(C)=O)C6C5)nc(OC[C@@]56CCCN5C[C@H](F)C6)nc4c3F)c12 (stereo partly drawn) [Example 623, 1-(6-(7-(8-ethyl-7-fluoro-3-hydroxynaphthalen-1-yl)-8-fluoro-2-(((2R,7aS)-2-fluorotetrahydro-1H-pyrrolizin-7a(5H)-yl)methoxy)pyrido[4,3-d]pyrimidin-4-yl)hexahydropyrrolo[3,4-b][1,4]oxazin-4(4aH)-yl) ethan-1-one]				> 10000 nM	> 10000 nM
CCc1c(F)ccc2cc(O)cc(-c3ncc4c(NCc5cc(C(=O)N(C)C)nn5CCC#N)nc(OC[C@@]56CCCN5C[C@H](F)C6)nc4c3F)c12 [Example 669, 1-(2-cyanoethyl)-5-(((7-(8-ethyl-7-fluoro-3-hydroxynaphthalen-1-yl)-8-fluoro-2-(((2R,7aS)-2-fluorohexahydro-1H-pyrrolizin-7a-yl)methoxy)pyrido[4,3-d]pyrimidin-4-yl)amino)methyl)-N,N-dimethyl-1H-pyrazole-3-carboxamide]				> 10000 nM	4510 nM
CCc1c(F)ccc2cc(O)cc(-c3ncc4c(NCc5cc(C(=O)N(C)C)nn5CC5COC5)nc(OC[C@@]56CCCN5C[C@H](F)C6)nc4c3F)c12 [Example 683, 5-(((7-(8-ethyl-7-fluoro-3-hydroxynaphthalen-1-yl)-8-fluoro-2-(((2R,7aS)-2-fluorohexahydro-1H-pyrrolizin-7a-yl)methoxy)pyrido[4,3-d]pyrimidin-4-yl)amino)methyl)-N,N-dimethyl-1-(oxetan-3-ylmethyl)-1H-pyrazole-3-carboxamide]				> 10000 nM	> 10000 nM
CCc1c(F)ccc2cc(O)cc(-c3ncc4c(NCc5c[nH]nc5NC(=O)C5COC5)nc(OC[C@@]56CCCN5C[C@H](F)C6)nc4c3F)c12 [Example 649, N-(4-(((7-(8-ethyl-7-fluoro-3-hydroxynaphthalen-1-yl)-8-fluoro-2-(((2R,7aS)-2-fluorohexahydro-1H-pyrrolizin-7a-yl)methoxy)pyrido[4,3-d]pyrimidin-4-yl)amino)methyl)-1H-pyrazol-3-yl) oxetane-3-carboxamide]	85 nM	38 nM	9 nM		
CCc1c(F)ccc2cc(O)cc(-c3ncc4c(NCc5cc(C(=O)N(C)C)n(C6CS(=O)(=O)C6)n5)nc(OC[C@@]56CCCN5C[C@H](F)C6)nc4c3F)c12 [Example 692, 1-(1,1-dioxidothietan-3-yl)-3-(((7-(8-ethyl-7-fluoro-3-hydroxynaphthalen-1-yl)-8-fluoro-2-(((2R,7aS)-2-fluorohexahydro-1H-pyrrolizin-7a-yl)methoxy)pyrido[4,3-d]pyrimidin-4-yl)amino)methyl)-N,N-dimethyl-1H-pyrazole-5-carboxamide]				> 10000 nM	7030 nM
CCc1c(F)ccc2cc(O)cc(-c3ncc4c(N5CCCC(C6CCNC6=O)C5)nc(OC[C@@]56CCCN5C[C@H](F)C6)nc4c3F)c12 (stereo partly drawn) [Example 616, 3-(1-(7-(8-ethyl-7-fluoro-3-hydroxynaphthalen-1-yl)-8-fluoro-2-(((2R,7aS)-2-fluorohexahydro-1H-pyrrolizin-7a-yl)methoxy)pyrido[4,3-d]pyrimidin-4-yl)piperidin-3-yl)pyrrolidin-2-one]				3620 nM	1140 nM
CCc1c(F)ccc2cc(O)cc(-c3ncc4c(NCc5cc(C(=O)N(C)C)n(CC6COC6)n5)nc(OC[C@@]56CCCN5C[C@H](F)C6)nc4c3F)c12 [Example 684A, 3-(((7-(8-ethyl-7-fluoro-3-hydroxynaphthalen-1-yl)-8-fluoro-2-(((2R,7aS)-2-fluorohexahydro-1H-pyrrolizin-7a-yl)methoxy)pyrido[4,3-d]pyrimidin-4-yl)amino)methyl)-N,N-dimethyl-1-(oxetan-3-ylmethyl)-1H-pyrazole-5-carboxamide]				> 10000 nM	> 10000 nM
